# Source: patent US12630512B2, “Agents for differentiating stem cells and treating cancer” (Minerva Biotechnologies Corporation, priority 2017, dated 2026)
# Key:
# [1] = test system: human primed state stem cells; assay: Stem cell drug screen on primed state stem cells (pluripotency, proliferation, differentiation); format: cell-based; conditions: primed state stem cells; 6 uM per FIGS. 46-64
# Procedure: The stem cell screening assay, was performed in both the presence and absence of the stem cell growth factors: NME7AB for growing naïve stem cells or FGF for growing primed stem cells. If the cognate growth factor was present, then the biological or small molecule would have to compete away the growth factor to get an effect. Therefore, we expected to see more of an effect when the growth factor, FGF for primed stem cells or NME7AB or NME1 dimers for naïve stem cells, was absent. The effect of the compounds on stem cells was visually determined and compounds were ranked 0-4, with 4 being the greatest effect and 0 being no observable effect. The major effect that was observed was a change from pluripotent stem cell morphology, which is a cobblestone pattern of small round cells with a large nucleus to cytoplasm ratio, to that of differentiating stem cells, which are elongated, large and flattened cells with a smaller nucleus to cytoplasm ratio. […] The compounds were added to a final concentration of 6 uM to either naïve state stem cells or primed state stem cells. In this particular case, the naïve state stem cells were maintained in a naïve state by culturing in a media containing NME7AB or NME1 dimers. However, other methods such as 2i and 5i (Silva et al., 2008, Nichols and Smith, 2009, Theunissen et al., 2014)] can be used to maintain stem cells in a more naïve state. In this case primed state stem cells were cultured in bFGF over a layer of MEFs, although it is known that any bFGF containing media will maintain stem cells in the primed state.
# Percent inhibition of cancer cell migration was performed in a wound healing assay. The percent area that the invading cancer cells occupied, in the presence of a drug candidate compared to the controls, was quantified by Image J cell software which enables cell counting from photographs. IC50's were calculated by performing migration experiments at several compound concentrations and then applying Hill's equation. Inhibition of cancer cell proliferation was quantified by automated cell counting in the presence or absence of a drug candidate. Here, the inhibition of cancer cell proliferation was scored 1 if proliferation was inhibited by 25%, 2 if inhibited by […] and 4 for the highest degree of inhibition of proliferation, and 0 for the lowest. The effect of the drug candidates on stem cell pluripotency or proliferation was scored by eye, based on cell morphology and cell density, with 0 being no change in morphology or cell number and 4 being the most profound effect, with the stem cells taking on the morphology of a differentiating cell, along with much fewer cells indicative of inhibition of proliferation. As an example, FIGS. 30A-30F show photographs of naïve stem cell, primed stem cell and fibroblast controls. FIGS. 31A-31F show the effect of compounds of the invention on naïve state stem cells, where the number of ‘+’ signs indicates the score from 0-4 of ability of compound to inhibit pluripotency, proliferation of naïve stem cells or ability to induce their differentiation. […] FIGS. 36-44 and 65-87 show photographs and IC50 graphs of the compounds of the invention, inhibiting cancer cell migration and invasion. Cancer cell migration is a hallmark of metastatic cancer.
# Stem cells whether embryonic or induced pluripotent stem (iPS) cells were cultured in a minimal, serum-free media that contained human recombinant bFGF at a concentration of 8 ng/mL. The stem cells were plated over a layer of inactivated mouse embryonic fibroblasts, aka MEFs, which secrete additional uncharacterized growth factors and cytokines.
# Human naïve state and primed stem cells were cultured in parallel for at least 5 passages to guarantee normal differentiation-free growth. The stem cells were plated in 12-well cell culture plates with 50,000 cells per well. Cells were cultured in their respective media, either bFGF media or NME7AB media for 24 hours. […]
# cancer cells = assay: Cancer cell proliferation assay; format: cell-based
# Procedure: Percent inhibition of cancer cell migration was performed in a wound healing assay. The percent area that the invading cancer cells occupied, in the presence of a drug candidate compared to the controls, was quantified by Image J cell software which enables cell counting from photographs. IC50's were calculated by performing migration experiments at several compound concentrations and then applying Hill's equation. Inhibition of cancer cell proliferation was quantified by automated cell counting in the presence or absence of a drug candidate. […] The effect of the drug candidates on stem cell pluripotency or proliferation was scored by eye, based on cell morphology and cell density, with 0 being no change in morphology or cell number and 4 being the most profound effect, with the stem cells taking on the morphology of a differentiating cell, along with much fewer cells indicative of inhibition of proliferation. […]
# For the cancer cell proliferation experiment cancer cells were plated at constant densities (6000 cells/well) into a 96-well White-walled/Clear-bottom Tissue Culture Treated plate (Corning Incorporated, Big Flats, NY). […] At the 120 hour mark a calcein fluorescence assay (Thermo Fisher Scientific, Waltham, MA) is performed on the plate. Calcein fluorescence (final concentration 0.5 uM) is used to assess cell viability. […]
SMILES,effect on primed state stem cells [1],inhibited cancer cell proliferation (cancer cells)
CN(C[C@H]1CC[C@H](C(=O)N2CCc3c([nH]c4ccccc34)C2C2CC2)CC1)C(=O)NC(C)(C)C (some centres unmarked) [MN1413],no effect,about 50%
C[C@@H]1Cc2c([nH]c3ccccc23)CN1C(=O)C1CCC(CN(C)C(=O)NC(C)(C)C)CC1 (some centres unmarked) [MN1423],no effect,50%
"CN(CC1CCC(C(=O)N2CCC(c3ccncc3)CC2)CC1)C(=O)OC(C)(C)C (centres unmarked) [MN1428, Tert-butyl methyl((4-(4-(pyridin-4-yl)piperidine-1-carbonyl)cyclohexyl)methyl)carbamate]",no effect,
